The values below come from patent US7008636B2, “2,3,5-substituted biphenyls useful in the treatment of insulin resistance and hyperglycemia” (Wyeth, priority 1998, dated 2006).

Data set [1] has as its target T1, recombinant, human protein tyrosine phosphatase (PTP) 1B (hPTP1B) (Homo sapiens, UniProt P18031).
T1 construct: made in house
T1 sequence (P18031 1-435): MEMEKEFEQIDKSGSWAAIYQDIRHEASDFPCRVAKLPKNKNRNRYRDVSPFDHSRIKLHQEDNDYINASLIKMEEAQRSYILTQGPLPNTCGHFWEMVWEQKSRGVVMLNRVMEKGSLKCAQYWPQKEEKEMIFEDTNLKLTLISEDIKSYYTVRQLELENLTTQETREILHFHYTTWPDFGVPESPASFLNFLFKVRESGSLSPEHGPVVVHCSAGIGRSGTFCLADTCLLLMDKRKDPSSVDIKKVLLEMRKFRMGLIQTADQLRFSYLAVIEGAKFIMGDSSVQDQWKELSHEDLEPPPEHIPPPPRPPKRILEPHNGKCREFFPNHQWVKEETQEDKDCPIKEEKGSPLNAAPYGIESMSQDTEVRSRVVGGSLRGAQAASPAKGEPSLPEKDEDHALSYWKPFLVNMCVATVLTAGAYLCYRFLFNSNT
As to the kind of experiment: Inhibition of tri-phosphorylated insulin receptor dodecaphosphopeptide dephosphorylation by hPTP1B. The format is biochemical. The note with it: 50 μM IR triphosphopeptide substrate, 5 min preincubation and 5 min reaction at 37° C., malachite green-ammonium molybdate phosphate detection.

For the molecule `O=C(O)COc1c(-c2cccc(Cl)c2)cc(C(=O)NCCCCCCCCn2ccnc2)cc1-c1cccc(Cl)c1` [Example 92, [3,3″-Dichloro-5′-(8-imidazol-1-yl-octylcarbamoyl)-[1,1′;3′1″]terphenyl-2′-yloxy]acetic acid], the melting point was > 109 °C (dec.). Further, the IC50 in data set [1] was found to be 471 nM.
On to `O=C(O)COc1c(-c2cccc(Cl)c2)cc(C(=O)NCCCCCCOC(=O)Nc2ccc(Oc3ccccc3)cc2)cc1-c1cccc(Cl)c1` [Example 95, {3,3″-Dichloro-5′-[6-(4-phenoxy-phenylcarbamoyloxy)-hexylcarbamoyl]-[1,1′;3′1″]terphenyl-2′-yloxy}acetic acid], for which the melting point is > 75 °C (dec.). For the same molecule, in data set [1], the IC50 is 641 nM.
The molecule `O=C(O)COc1c(-c2cccc(Cl)c2)cc(C(=O)NCCCCCCCCn2ccc3cc(F)ccc32)cc1-c1cccc(Cl)c1` [Example 96, {3,3″-Dichloro-5′-[8-(5-fluoro-indol-1-yl)-octylcarbamoyl]-[1,1′;3′1″]terphenyl-2′-yloxy}acetic acid] came in with a melting point of 141 to 144 °C. In addition, the IC50 in data set [1] worked out at 137 nM.
On the same counts, the results for `COc1ccc2c(ccn2CCCCCCCCNC(=O)c2cc(-c3cccc(Cl)c3)c(OCC(=O)O)c(-c3cccc(Cl)c3)c2)c1` [Example 97, {3,3″-Dichloro-5′-[8-(5-methoxy-indol-1-yl)-octylcarbamoyl]-[1,1′;3′1″]terphenyl-2′-yloxy}acetic acid] are > 70 °C (dec.) and 186 nM.
With `Cc1ccc2c(c1)cc(C)n2CCCCCCCCNC(=O)c1cc(-c2cccc(Cl)c2)c(OCC(=O)O)c(-c2cccc(Cl)c2)c1` [Example 98, {3,3″-Dichloro-5′-[8-(2,5-dimethyl-indol-1-yl)-octylcarbamoyl]-[1,1′;3′1″]-terphenyl-2′-yloxy}acetic acid], the melting point is > 172 °C (dec.). For the same molecule, in data set [1], the IC50 came out at 132 nM.
The corresponding values for `COc1ccc2c(c1)cc(C)n2CCCCCCCCNC(=O)c1cc(-c2cccc(Cl)c2)c(OCC(=O)O)c(-c2cccc(Cl)c2)c1` [Example 99, {3,3″-Dichloro-5′-[8-(5-methoxy-2-methyl-indol-1-yl)-octylcarbamoyl]-[1,1′;3′1″]-terphenyl-2′-yloxy}acetic acid] are > 75 °C (dec.) and 267 nM.
With `O=C(O)COc1c(-c2cccc(Cl)c2)cc(C(=O)NCC2(COCCCCc3ccccc3)CC2)cc1-c1cccc(Cl)c1` [Example 100, (3,3″-Dichloro-5′-{[1-(4-phenyl-butoxymethyl)-cyclopropylmethyl]-carbamoyl}-[1,1′;3′1″]terphenyl-2′-yloxy)acetic acid], the melting point was > 52 °C (dec.). Moreover, the IC50 in data set [1] is 389 nM.
The corresponding values for `CC(C)(COc1c(-c2cccc(C(F)(F)F)c2)cc(C(=O)NCCCCCCCc2ccccc2)cc1-c1cccc(C(F)(F)F)c1)C(=O)O` [Example 129, 2,2-Dimethyl-3-[5′-(7-phenyl-heptylcarbamoyl)-3,3″-bis-trifluoromethyl-[1,1′:3′,1″]terphenyl-2′-yloxy]-propionic acid] are 130 to 132 °C and 162 nM.
`Cc1cccc(-c2cc(C(=O)NCCCCCCCc3ccccc3)cc(-c3cccc(C)c3)c2OCC(=O)O)c1` [Example 145, [3,3″-Dimethyl-5′-(7-phenyl-heptylcarbamoyl)-[1,1′:3′,1″]terphenyl-2′-yloxy]acetic acid] came in with a melting point of 58 to 62 °C. In addition, the IC50 in data set [1] stood at 1150 nM.
The corresponding values for `Cc1cc(C)cc(-c2cc(C(=O)NCCCCCCCc3ccccc3)cc(-c3cc(C)cc(C)c3)c2OCCCC(=O)O)c1` [Example 148, 4-[3,5,3″,5″-Tetramethyl-5′-(7-phenyl-heptylcarbamoyl)-[1,1′:3′,1″]terphenyl-2′-yloxy]-butyric acid] are 64 to 66 °C and 249 nM.
With `CCCCCCCCCCCCNC(=O)c1cc(Br)c(OCC(=O)O)c(-c2ccccc2F)c1` [Example 156, (3-Bromo-5-dodecylcarbamoyl-2′-fluoro-biphenyl-2-yloxy)acetic acid], the melting point lay in the range of 128 to 138 °C. In addition, the IC50 in data set [1] came to 278 nM.
With `COc1ccc(-c2cc(C(=O)NCCCCCCCCc3ccccc3)cc(-c3cccc(C(F)(F)F)c3)c2OCC(=O)O)cc1` [Example 158, [4″-Methoxy-5′-(8-phenyl-octylcarbamoyl)-3-trifluoromethyl-[1,1′;3′,1″]terphenyl-2′-yloxy]acetic acid], the melting point is 139 to 144 °C. Besides, in data set [1], the IC50 came to 246 nM.
The molecule `CCCCCCCCCCCCNC(=O)c1cc(-c2cc(Cl)cc(Cl)c2)c(OCC(=O)O)c(-c2cc(Cl)cc(Cl)c2)c1` [Example 159, (3,5,3″,5″-Tetrachloro-5′-dodecylcarbamoyl-[1,1′;3′,1″]terphenyl-2′-yloxy)acetic acid] displayed a melting point of 139 to 144 °C. Besides, the IC50 in data set [1] stood at 44 nM.
The corresponding values for `O=C(O)COc1c(-c2cc(Cl)cc(Cl)c2)cc(C(=O)NCCCCCCCCc2ccccc2)cc1-c1cc(Cl)cc(Cl)c1` [Example 160, [3,5,3″,5″-Tetrachloro-5′-(8-phenyl-octylcarbamoyl)-[1,1′;3′,1″]terphenyl-2′-yloxy]acetic acid] are 139 to 149 °C and 54 nM.
On the same counts, the results for `O=C(O)COc1c(-c2cc(Cl)cc(Cl)c2)cc(C(=O)NCCCCCCc2ccccc2)cc1-c1cc(Cl)cc(Cl)c1` [Example 161, [3,5,3″,5″-Tetrachloro-5′-(6-phenyl-hexylcarbamoyl)-[1,1′;3′,1″]terphenyl-2′-yloxy]acetic acid] are 151 to 159 °C and 33 nM.
The corresponding values for `CCCCCCc1cc(-c2ccccc2)c(OCC(=O)O)c(-c2ccccc2)c1` [Example 169, (5′-Hexyl-[1,1′;3′,1″]terphenyl-2′-yloxy)acetic acid] are 87 to 89 °C and 905 nM.
In the case of `CCCCCCCCCc1cc(-c2ccccc2)c(OCC(=O)O)c(-c2ccccc2)c1` [Example 170, (5′-Nonyl-[1,1′;3′,1″]terphenyl-2′-yloxy)acetic acid], the melting point is 63 to 65 °C. Also, the IC50 in data set [1] was found to be 178 nM.
On the same counts, the results for `CCCCCCCCCCCCCCOc1cc(-c2ccccc2)c(OCC(=O)O)c(-c2ccccc2)c1` [Example 173, (5′-Tetradecyloxy-[1,1′;3′,1″]terphenyl-2′-yloxy)acetic acid] are 89 to 90 °C and 28 nM.
The corresponding values for `O=C(O)COc1c(-c2ccccc2)cc(C(c2ccccc2)(c2ccccc2)c2ccccc2)cc1-c1ccccc1` [Example 174, (5′-Trityl-[1,1′;3′,1″]terphenyl-2′-yloxy)acetic acid] are 211 to 214 °C and 633 nM.
On the same counts, the results for `CCCCCCCCCCCCNC(=O)c1cc(-c2cccc(C(F)(F)F)c2)c(OCC(=O)O)c(-c2cccc(C(F)(F)F)c2)c1` [Example 175, (5′-Dodecylcarbamoyl-3,3″-bis-trifluoromethyl-{1,1′;3′,1″]terphenyl-2′-yloxy)-acetic acid] are 154.3 to 158.2 °C and 50 nM.
As for `O=C(O)COc1c(-c2cccc(C(F)(F)F)c2)cc(C(=O)NCCCCCCc2ccccc2)cc1-c1cccc(C(F)(F)F)c1` [Example 189, [5′-(6-Phenyl-hexylcarbamoyl)-3,3″-bis-trifluoromethyl-[1,1′:3′,1″}terphenyl-2′-yloxy]-acetic acid], the melting point is 166.5 to 168.8 °C. For the same molecule, in data set [1], the IC50 worked out at 336 nM.
On the same counts, the results for `O=C(NCCCCCCCCc1ccccc1)c1cc(-c2cccc(C(F)(F)F)c2)c(OCCCCc2nnn[nH]2)c(-c2cccc(C(F)(F)F)c2)c1` [Example 198] are 145.4 to 150.8 °C and 217 nM.
